The target of assay [1] is T1, KRas G12D (Homo sapiens, UniProt P01116, G12D). As to the kind of experiment: KRas G12D Surface Plasmon Resonance (SPR) Binding Assay. To be noted: Biacore T200, biotinylated Avidin-tagged KRAS protein on SA chip, 20 C, 1:1 binding model. On the procedure:
This Example illustrates that exemplary compounds of the present invention bind to KRas G12D as measured by surface plasmon resonance (SPR). Briefly, 1 L of 1.05×HBS-Mg buffer (262.5 mM BioUltra Hepes, pH 7.5, 157.5 mM NaCl, 105 mM MgCl2, 0.525 mM TCEP, […] Brij-35) was prepared and filter sterilized using a 0.22 μm bottle top filter. Approximately 50 mL of 1.05×HBS-Mg buffer was removed and saved for future dilutions. A 50 mL aliquot of DMSO (Sigma Aldrich DMSO Lot. #SHBK2079) was added and continued to stir for 10 minutes, creating the final 1.0×HBS-Mg buffer (250 mM BioUltra Hepes pH 7.5, 150 mM NaCl, 100 mM MgCl2, 0.5 mM TCEP, 0.03% Brij-35). Biacore T200 instrument was primed using 1.0×HBS-Mg buffer before docking a GE Streptavidin (SA) chip and then primed two additional times prior to beginning the immobilization step. All immobilized protein mixtures were created using 3-5 mg/mL Biotinylated Avidin-tagged KRAS protein using the following immobilization settings: SA chip type, 1 flow cells per cycle, 720 second contact time, and 5 μL/min flow rate. Normalization of the detector was also performed during the immobilization step using the GE BiaNormalize solution. All compounds were diluted to 10 mM in 100% DMSO prior to being diluted 20× in 1.05× buffer. Another 10× dilution was created using 1.0× buffer prior to performing a series of 3× dilutions to create a compound concentration curve using the following assay settings: 20 C analysis temperature, General Settings=10 Hz data collection rate and multi-detection; Assay Steps=all set to LMW kinetics; Cycle Types=LMW kinetics (60s contact time, 120s dissociation time, 100 μL/min flow rate, extra wash after injection with 50% DMSO, flow path 1,2,3,4); Flow path detection=2-1, 4-3). Data evaluation was performed using the Biacore T200 Evaluation software and data fit to 1:1 binding model.
Target sequence in this assay (P01116 1-188 isoform P01116-2 G12D): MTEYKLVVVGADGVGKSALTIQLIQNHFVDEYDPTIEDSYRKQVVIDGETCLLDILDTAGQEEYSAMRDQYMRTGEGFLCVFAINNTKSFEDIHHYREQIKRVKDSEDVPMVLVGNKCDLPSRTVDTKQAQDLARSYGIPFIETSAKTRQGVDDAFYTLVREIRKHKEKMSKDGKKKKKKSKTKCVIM

The subject of assay [2] is KRas G12D-mediated Phosphorylation of ERK. As to the kind of experiment: Inhibition of KRas G12D-mediated Phosphorylation of ERK in AGS cells. Type of assay: cell-based. To be noted: Homo sapiens; AGS cells expressing G12D, 3 hours, phospho-ERK normalized to GAPDH. The method in brief:
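AGS cells (endogenous KRas G12D) were treated with compounds for 3 h in 0.5% DMSO, then fixed, permeabilized and immunostained. The phospho-ERK (Thr202/Tyr204) signal was normalized to GAPDH in-cell by infrared detection and expressed as % of DMSO control. IC50 came from a 4-parameter fit.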

In assay [3] the target is T1, KRas G12D. Put plainly: KRas G12D Binding Assay (TR-FRET displacement of labeled tracer). On the set-up: corresponding to amino acids 1:169, produced at Array BioPharma; biotin (protein is biotinylated). To be noted: TR-FRET displacement of Cy5 labelled tracer, biotinylated GDP-loaded KRAS G12D (aa 1:169), 60 minute incubation at 22° C. The method in brief: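 Biotinylated GDP-loaded human KRAS G12D (aa 1–169) incubated with Cy5 tracer, Eu-streptavidin and compound (2% DMSO final) in 50 mM HEPES pH 7.5, 5 mM MgCl2, 0.005% Tween-20, 1 mM DTT, 60 min at 22 °C. TR-FRET ratio converted to percent of control; IC50 at 50 POC from 4-parameter logistic fit.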
Target sequence in this assay (P01116 1-169 isoform P01116-2 G12D): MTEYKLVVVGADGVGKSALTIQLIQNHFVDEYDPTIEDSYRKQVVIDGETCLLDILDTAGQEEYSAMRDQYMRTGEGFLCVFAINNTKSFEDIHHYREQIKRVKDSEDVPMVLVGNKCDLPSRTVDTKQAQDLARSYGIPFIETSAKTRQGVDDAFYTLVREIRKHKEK

Each structure is given as a SMILES string.

Take `CN1CCC[C@H]1COc1nc2c(c(N3C[C@H]4CC[C@@H](C3)N4)n1)CCN(c1cc(C(F)F)cc3ccccc13)C2` [Example 56, 4-((1R,5S)-3,8-diazabicyclo[3.2.1]octan-3-yl)-7-(3-(difluoromethyl)naphthalen-1-yl)-2-(((S)-1-methylpyrrolidin-2-yl)methoxy)-5,6,7,8-tetrahydropyrido[3,4-d]pyrimidine]: the affinity at KRas G12D [1], expressed as Kd, was 89.9 µM. The IC50 was over 16.7 µM in assay [2] and over 10 µM at KRas G12D [3].
For `CO[C@@H]1C[C@@H]2CN(c3nc(OC[C@@H]4CCCN4C)nc4c3CCN(c3cc(O)cc5ccccc35)C4)C[C@H]1N2` [Example 37, 4-(4-((1R,5R,6R)-6-methoxy-3,8-diazabicyclo[3.2.1]octan-3-yl)-2-(((S)-1-methylpyrrolidin-2-yl)methoxy)-5,8-dihydropyrido[3,4-d]pyrimidin-7(6H)-yl)naphthalen-2-ol], in that order: 12.8 µM, 3.85 µM and 0.0881 µM.
As for `CN1CCC[C@H]1COc1nc2c(c(N3CC4CCC(C)(C3)N4)n1)CCN(c1cc(O)cc3ccccc13)C2` (stereo partly drawn) [Example 61, 4-(4-(1-methyl-3,8-diazabicyclo[3.2.1]octan-3-yl)-2-(((S)-1-methylpyrrolidin-2-yl)methoxy)-5,8-dihydropyrido[3,4-d]pyrimidin-7(6H)-yl)naphthalen-2-ol], binding on KRas G12D [1] was characterised by a dissociation constant (Kd) of 0.176 µM. Besides, the values for the IC50 (in assay [2]; on KRas G12D [3]) were 6.88 µM and 0.184 µM, respectively.
For `FC(F)(F)c1c(Cl)cccc1N1CCc2c(nc(OCC34CCCN3CCC4)nc2N2C[C@H]3CC[C@@H](C2)N3)C1` [Example 63, 4-((1R,5S)-3,8-diazabicyclo[3.2.1]octan-3-yl)-7-(3-chloro-2-(trifluoromethyl)phenyl)-2-((tetrahydro-1H-pyrrolizin-7a(5H)-yl)methoxy)-5,6,7,8-tetrahydropyrido[3,4-d]pyrimidine], in that order: 0.0123 µM, 6.58 µM and 0.0051 µM.
For `CN1CCC[C@H]1COc1nc2c(c(N3C[C@H]4CC[C@@H](C3)N4)n1)CCN(c1cc(O)c(Cl)c3ccccc13)C2` [Example 24, 4-(4-((1R,5S)-3,8-diazabicyclo[3.2.1]octan-3-yl)-2-(((S)-1-methylpyrrolidin-2-yl)methoxy)-5,8-dihydropyrido[3,4-d]pyrimidin-7(6H)-yl)-1-chloronaphthalen-2-ol], in that order: 0.0377 µM, over 16.7 µM and 1.36 µM.
`CN1CCC[C@H]1COc1nc2c(c(N3CC4CC(O)C(C3)N4)n1)CCN(c1cc(O)cc3ccccc13)C2` (mixture of isomers) [Example 4, 3-(7-(3-hydroxynaphthalen-1-yl)-2-(((S)-1-methylpyrrolidin-2-yl)methoxy)-5,6,7,8-tetrahydropyrido[3,4-d]pyrimidin-4-yl)-3,8-diazabicyclo[3.2.1]octan-6-ol] gave a Kd on KRas G12D [1] of 0.0015 µM. The IC50 in assay [2] is 0.994 µM; on KRas G12D [3], 0.0037 µM.
`CO[C@@H]1C[C@@H]2CN(c3nc(OCC45CCCN4CC(F)C5)nc4c3CCN(c3cccc5cccc(Cl)c35)C4)C[C@H]1N2` (mixture of isomers) [Example 43, 7-(8-chloronaphthalen-1-yl)-2-((2-fluorotetrahydro-1H-pyrrolizin-7a(5H)-yl)methoxy)-4-((1R,5R,6R)-6-methoxy-3,8-diazabicyclo[3.2.1]octan-3-yl)-5,6,7,8-tetrahydropyrido[3,4-d]pyrimidine] returned a Kd on KRas G12D [1] of 0.0576 µM. Besides, the IC50 in assay [2] was over 16.7 µM; at KRas G12D [3] it was 0.0901 µM.
For `Clc1cccc2cccc(N3CCc4c(nc(OCC56CCCN5CCC6)nc4N4C[C@H]5CC[C@@H](C4)N5)C3)c12` [Example 29, 4-((1R,5S)-3,8-diazabicyclo[3.2.1]octan-3-yl)-7-(8-chloronaphthalen-1-yl)-2-((tetrahydro-1H-pyrrolizin-7a(5H)-yl)methoxy)-5,6,7,8-tetrahydropyrido[3,4-d]pyrimidine], in that order: 0.0063 µM, 4.05 µM and 0.0025 µM.
For `CN1CCC[C@H]1COc1nc2c(c(N3C[C@H]4CC[C@@H](C3)N4)n1)CCN(c1cncc3cccc(Cl)c13)C2` [Example 58, 4-((1R,5S)-3,8-diazabicyclo[3.2.1]octan-3-yl)-7-(5-chloroisoquinolin-4-yl)-2-(((S)-1-methylpyrrolidin-2-yl)methoxy)-5,6,7,8-tetrahydropyrido[3,4-d]pyrimidine], in that order: 0.438 µM, over 16.7 µM and 0.283 µM.
In the same order, the values of `CN1CCC[C@H]1COc1nc2c(c(N3C[C@H]4CC[C@@H](C3)N4)n1)CCN(c1cccc3ccc(F)cc13)C2` [Example 72, 4-((1R,5S)-3,8-diazabicyclo[3.2.1]octan-3-yl)-7-(7-fluoronaphthalen-1-yl)-2-(((S)-1-methylpyrrolidin-2-yl)methoxy)-5,6,7,8-tetrahydropyrido[3,4-d]pyrimidine] are 0.923 µM, over 16.7 µM and 0.226 µM.
With `CN1CCC[C@H]1COc1nc2c(c(N3C[C@H]4CC(CCO)[C@@H](C3)N4)n1)CCN(c1cccc3cccc(Cl)c13)C2` (stereo partly drawn) [Example 91, 2-((1R,5S)-3-(7-(8-chloronaphthalen-1-yl)-2-(((S)-1-methylpyrrolidin-2-yl)methoxy)-5,6,7,8-tetrahydropyrido[3,4-d]pyrimidin-4-yl)-3,8-diazabicyclo[3.2.1]octan-6-yl)ethan-1-ol], the Kd on KRas G12D [1] was 0.176 µM. For the same compound, the IC50 in assay [2] is over 16.7 µM; on KRas G12D [3] it was 0.0784 µM.
In the same order, the values of `CN1CCC[C@H]1COc1nc2c(c(N3C[C@H]4CC[C@@H](C3)N4)n1)CCN(c1cc(O)cc3ccccc13)C2` [Example 1, 4-(4-((1R,5S)-3,8-diazabicyclo[3.2.1]octan-3-yl)-2-(((S)-1-methylpyrrolidin-2-yl)methoxy)-5,8-dihydropyrido[3,4-d]pyrimidin-7(6H)-yl)naphthalen-2-ol] are 0.11 µM, 2.35 µM and 0.0489 µM.
The compound `CN1CCC[C@H]1COc1nc2c(c(N3C[C@H]4CC[C@@H](C3)N4)n1)CCN(c1cc(O)cc3cccc(Cl)c13)C2` [Example 28, 4-(4-((1R,5S)-3,8-diazabicyclo[3.2.1]octan-3-yl)-2-(((S)-1-methylpyrrolidin-2-yl)methoxy)-5,8-dihydropyrido[3,4-d]pyrimidin-7(6H)-yl)-5-chloronaphthalen-2-ol] returned a Kd on KRas G12D [1] of over 1000 µM. In addition, the IC50 was 0.361 µM in assay [2] and 0.0012 µM on KRas G12D [3].
In the same order, the values of `CN1CCC[C@H]1COc1nc2c(c(N3CC4CC(F)C(C3)N4)n1)CCN(c1cc(O)cc3ccccc13)C2` (stereo partly drawn) [Example 38, 4-(4-(6-fluoro-3,8-diazabicyclo[3.2.1]octan-3-yl)-2-(((S)-1-methylpyrrolidin-2-yl)methoxy)-5,8-dihydropyrido[3,4-d]pyrimidin-7(6H)-yl)naphthalen-2-ol] are 2.34 µM, 5 µM and 0.0735 µM.
In the same order, the values of `Oc1cc(N2CCc3c(nc(OCC45CCCN4CCC5)nc3N3C[C@H]4CC[C@@H](C3)N4)C2)c2ccccc2c1` [Example 31, 4-(4-((1R,5S)-3,8-diazabicyclo[3.2.1]octan-3-yl)-2-((tetrahydro-1H-pyrrolizin-7a(5H)-yl)methoxy)-5,8-dihydropyrido[3,4-d]pyrimidin-7(6H)-yl)naphthalen-2-ol] are 0.0008 µM, 1.61 µM and 0.0038 µM.
For `Clc1cccc2cncc(N3CCc4c(nc(OCC56CCCN5CCC6)nc4N4C[C@H]5CC[C@@H](C4)N5)C3)c12` [Example 30, 4-((1R,5S)-3,8-diazabicyclo[3.2.1]octan-3-yl)-7-(5-chloroisoquinolin-4-yl)-2-((tetrahydro-1H-pyrrolizin-7a(5H)-yl)methoxy)-5,6,7,8-tetrahydropyrido[3,4-d]pyrimidine], in that order: 0.0871 µM, 2.61 µM and 0.0168 µM.

These data come from US12686692B2, “KRas G12D inhibitors” (Mirati Therapeutics, Inc., priority 2020, dated 2026).
